In brackets after ≈: the same amount, converted by molar mass.

Five compounds from patent US7875598B2, “Compositions useful for the treatment of microbial infections” (The Regents of the University of California, priority 2004, dated 2011) can be followed below.

The test system of assay [1] is Clinical isolated drug-resistant C. albicans. Nature of the assay: Sensitivity of clinical isolated drug-resistant C. albicans. The class given is cell-based, Candida albicans. How it is done: (§1) Bioassays were conducted to further characterize these two compounds.
The subject of the next assay is C. albicans. Nature of the assay: Anti-fungal activity (MIC) against C. albicans. The class given is cell-based, Candida albicans. The note with it: for MIC: Candida albicans. How it is done:
The compositions of the present invention usually have an anti-microbial effect, e.g., anti-G^+ bacteria activity, anti-G^− bacteria activity, anti-fungus activity or effect on bacterial quorum sensing. Methods or assays for testing the anti-microbial activity of a composition are readily available to one skilled in the art. For example, compositions of the present invention can be incubated with a bacterial or fungous culture, and the bacterial or fungous growth can be subsequently examined with a plate reader. Compositions of the present invention can also be examined for their effect on bacterial quorum sensing using either an acyl-homoserine lactone quorum sensing reporter system or a luxS quorum sensing reporter system.
as §1

The next assay has as its system S. mutans. Description: Anti-bacterial activity (MIC) against S. mutans. The class given is cell-based, Streptococcus mutans. The note with it: for MIC: Streptococcus mutans.
Assay [2] concerns methicillin resistant Staphylococcus aureus. Nature of the assay: Sensitivity of methicillin resistant Staphylococcus aureus. The class given is cell-based.
The subject of assay [3] is Vancomycin resistant Enterococci. Description: Sensitivity of Vancomycin resistant Enterococci. The assay is classed as cell-based.
Another assay concerns bacteria. Description: Enhancement of activity of other antibiotics (synergistic effect) in the bioassay. The class given is cell-based. An excerpt: Perilla was selected for two types of bioactivity. […] The second is its ability to enhance other antibacterial activities through some kind of synergistic effect. When the crude extract was mixed with antibiotics in the bioassay, it could enhance the activity of other antibiotics at a concentration at least 10 times lower than its MIC.

What is called MIC is the least concentration at which growth counts as inhibited. A lower MIC goes with inhibition by little substance. For `CC1OC(OC2C(O)[C@H](OC3OC(C)C(O)C(O)C3O)C(CO)O[C@H]2O[C@H]2CC[C@@]3(C)C(=CCC4C5CC6OC7(CC[C@@H](C)CO7)[C@@H](C)C6[C@@]5(C)CCC43)C2)C(O)C(O)C1O` (stereo partly drawn) [Dioscin, (3β,25R)-spirost-5-en-3-yl O-6-deoxy-α-L-mannopyranosyl-(1→2)-O-[6-deoxy-α-L-mannopyranosyl-(1→4)]-β-D-glucopyranoside], the “sensitivity of clinical isolated drug-resistant C. albicans to treatment” value in assay [1] is “still sensitive”. Besides, in the assay with C. albicans, the fungicidal effect result was “fungicidal effect” and the MIC was ~4 µg/mL (≈ 4.6 µM).

`CC/C=C\C/C=C\C/C=C\CCCCCCCC(=O)O` [Linolenic acid, (9Z,12Z,15Z)-9,12,15-octadecatrienoic acid]: in the assay on S. mutans, the MIC stood at 10 µg/mL (≈ 35.9 µM).

Regarding `CC1OC(OC2[C@H](O[C@H]3CC[C@@]4(C)C(=CCC5C6CC7OC8(CC[C@@H](C)CO8)[C@@H](C)C7[C@@]6(C)CCC54)C3)OC(CO)[C@@H](O[C@@H]3O[C@@H](CO)[C@@H](O)[C@H]3O)[C@@H]2O)C(O)C(O)C1O` (stereo partly drawn) [Polyphyllin D, (3β,25R)-spirost-5-en-3-yl O-α-L-arabinofuranosyl-(1→4)-O-[6-deoxy-α-L-mannopyranosyl-(1→2)]-β-D-glucopyranoside], the “sensitivity of clinical isolated drug-resistant C. albicans to treatment” value in assay [1] is “still sensitive”. Also, in the assay on C. albicans, the fungicidal effect result is given as “fungicidal effect” and the MIC was ~2 µg/mL (≈ 2.34 µM).

For the compound `C=C(C)[C@H](CC=C(C)C)Cc1c(O)cc(OC)c2c1O[C@H](c1ccc(O)cc1O)CC2=O` [kurarinone, 2-(2,4-dihydroxyphenyl)-2,3-dihydro-7-hydroxy-5-methoxy-8-[5-methyl-2-(1-methylethenyl)-4-hexenyl]-4H-1-benzopyran-4-one], in assay [2], the “sensitivity of methicillin resistant Staphylococcus aureus to the compound” value was “sensitive”. The “sensitivity of Vancomycin resistant Enterococci to the compound” value in assay [3] is recorded as “sensitive”. Further, 4 µg/mL (≈ 9.12 µM) was the least that counted as inhibitory in the assay with S. mutans (MIC). Also, in the assay on S. mutans (organism not given), the bactericidal effect entry was “bactericidal effect”. Moreover, the “sensitivity of antimicrobial activity to environmental changes” value in the assay on S. mutans (pH (4.8-7.4), salt composition (Na, K, Ca), salt concentrations, oxygen levels (anaerobic and aerobic), temperature (120° C.)) is given as “insensitive”.

Turning to `C=C(C)C1CC=C(C=O)CC1` (centres unmarked) [perillaldehyde, 4-(1-methylethenyl)-1-cyclohexene-1-carboxaldehyde], the “ability to enhance activity of other antibiotics” value in the assay with bacteria was “enhance activity of other antibiotics in a dose-dependent manner”. In the assay on S. mutans, this compound came in with an MIC of 10000 µg/mL (≈ 66600 µM).
